Assay results: patent US20250255961A1, “METHODS TO STIMULATE IMMUNE RESPONSES TO MUTANT RAS USING NUCLEATED CELLS” (STEMCELL TECHNOLOGIES CANADA INC., priority 2020, published 2025)
Entries after “also recorded” stand apart in the source; their conditions may differ.

Key:
[1] = test system: K-Ras G12V responder T cells; assay: IFN-γ ELISPOT: peptide-loaded HLA-A*11+ human PBMCs co-cultured with K-Ras G12V responder T cells; assay type: cell-based; settings: for IFN-γ expressing K-Ras-G12V responder T cells upon co-culture: HLA-A*11+ human PBMCs SQZ-loaded with 100 μM SLP; for IFN-γ secretion by K-Ras-G12V responder T cells upon co-culture: Example 4, FIG. 4, HLA-A*11+ human PBMCs (donor 296) SQZ-loaded with 100 μM SLP
Procedure: (§1) Human PBMCs from HLA-A*11^+ donor (donor 296) were prepared at a density of 10×10^6/mL, SQZ processed at room temperature through a constriction of 4.5 μm width, 10 μm length and 70 μm depth at 60 psi with 100 μM of the respective K-Ras synthetic long peptide (G12V^1-16, G12V^2-19) or with vehicle control (DMSO) in RPMI medium. Following SQZ-processing, the SQZ-loaded PMBCs were centrifuged, and the supernatant was discarded. The cells were subsequently washed once in R10 medium (RPMI+10% FCS+1% Pen/Strep), then washed twice in CTL medium (supplemented with 1% glutamine), before resuspension in fresh CTL medium (supplemented with 1% glutamine).
(§2) 2×10^5 SQZ-loaded PBMCs were then placed in co-culture with 5×10^4 K-Ras G12V responder T cells (generated in transgenic mice) in an IFN-γ ELISPOT plate. As a positive control, 10 μM K-Ras G12V^7-16 peptide containing the minimal epitope was added directly to untreated PBMCs and responder cells in the ELISPOT plate (peptide spike). The plate was incubated overnight at 37° C. and then developed/quantified according to manufacturer's instructions.
as §1, with “donor” for “donor (donor 296)”, “constriction with” for “constriction of”, “peptide (K-Ras G12V^3-17, K-Ras G12V^3-42)” for “peptide (G12V^1-16, G12V^2-19)”, “medium. An irrelevant synthetic long peptide (HPV-E7.6) was used as a negative control.” for “medium.”
as §1, with “donor” for “donor (donor 296)”, “10× 10^6/mL,” for “10×10^6/mL,”, “(wild type K-Ras^1-16, G12V^1-16, wild type K-Ras^2-22, or G12V^2-22)” for “(G12V^1-16, G12V^2-19)”
as §1, with “donor” for “donor (donor 296)”, “of a single” for “of the respective”, “peptide (G12V^1-16” for “peptide (G12V^1-16, G12V^2-19)”, “or G12V^2-19), or a combination of two K-Ras synthetic long peptides which are each at 100 μM (G12V^1-16 plus G12D^1-16 or G12V^2-19 plus G12D^1-16) or” for “or with”, “glutamine). […]” for “glutamine).”

[2] = test system: K-Ras G12V responder T cells; assay: as above; assay type: cell-based
[3] = test system: K-Ras G12D responder T cells; assay: IFN-γ ELISPOT: peptide-loaded HLA-A*11+ human PBMCs co-cultured with K-Ras G12D responder T cells; assay type: cell-based, transgenic mice; settings: for IFN-γ expressing by K-Ras-G12D responder T cells upon co-culture: Example 1, FIG. 1, vehicle control DMSO, overnight 37° C.; for IFN-γ expressing responder T cells upon co-culture: PBMCs incubated with 100 μM SLP at room temperature without SQZ (Endo-G12D); for IFN-γ secretion by K-Ras-G12D responder T cells upon co-culture: Example 3, FIG. 3, HLA-A*11+ human PBMCs (donor 339) SQZ-loaded with 100 μM SLP
Procedure: as §1, with “donor” for “donor (donor 296)”, “and SQZ-processed” for “SQZ processed”, “K-Ras G12D” for “K-Ras”, “(either G12D^1-16, G12D^2-19, G12D^2-22, G12D^2-29)” for “(G12V^1-16, G12V^2-19)”, “PBMCs” for “PMBCs”
as §2, with “G12D” for “G12V”, “G12D^7-16” for “G12V^7-16”
as §1, with “donor” for “donor (donor 296)”, “10×10^6/mL, and” for “10×10^6/mL,”, “(either wild type K-Ras^1-16 or K-Ras-G12D^1-16)” for “(G12V^1-16, G12V^2-19)”, “glutamine). […]” for “glutamine).”
as §1, with “339)” for “296)”, “(either wild type K-Ras^2-22 or K-Ras G12D^2-22)” for “(G12V^1-16, G12V^2-19)”, “glutamine). […]” for “glutamine).”
2×10^5 of either the SQZ-loaded PBMCs (SQZ-G12D) or SLP-incubated PBMCs (Endo-G12D), or an equal volume of the fluid phase solution (FF-G12D) were then placed in co-culture with 5×10^4 K-Ras G12D responder T cells (generated in transgenic mice) in an IFN—Y ELISPOT plate. As a positive control, 10 μM K-Ras G12D^7-16 peptide containing the minimal epitope was added directly to untreated PBMCs and responder cells in the ELISPOT plate (spike). 10 μM wild type K-Ras^7-16 peptide was added to PBMCs and responder as another […] (spike). The plate was incubated overnight at 37° C. and then developed/quantified according to manufacturer's instructions.

[4] = HLA-A*11+ human PBMCs SQZ-loaded with 100 μM SLP
[5] = Example 2, FIG. 2, HLA-A*11+ human PBMCs SQZ-loaded with 100 μM SLP, compared to vehicle control
[6] = Example 6, FIG. 6, compared to vehicle control

EYKLVVVGAVGVGKS [G12V^3-17, K-Ras G12V synthetic long peptide, residues 3-17]
IFN-γ expressing K-Ras-G12V responder T cells upon co-culture ([1]; Example 5, FIG. 5): significant increases
IFN-γ expressing K-Ras-G12V responder T cells upon co-culture ([2]; Example 5, FIG. 5, HLA-A*11+ human PBMCs SQZ-loaded with 100 μM SLP, listed as K-Ras-G12V^3-17): increased amount

EYKLVVVGAVGVGKSALTIQLIQNHFVDEYDPTIEDSYRK [G12V^3-42, K-Ras G12V synthetic long peptide, residues 3-42]
IFN-γ expressing K-Ras-G12V responder T cells upon co-culture ([1]; Example 5, FIG. 5): significant increases
IFN-γ expressing K-Ras-G12V responder T cells upon co-culture ([2]; Example 5, FIG. 5, HLA-A*11+ human PBMCs SQZ-loaded with 100 μM SLP, listed as K-Ras-G12V^3-42): increased amount

MTEYKLVVVGADGVGK [G12D^1-16, K-Ras G12D synthetic long peptide, residues 1-16]
IFN-γ expressing by K-Ras-G12D responder T cells upon co-culture [3, 4]: increased amount; also recorded: significant increases
IFN-γ expressing K-Ras-G12D responder T cells upon co-culture [3, 5]: significant increases
IFN-γ expressing K-Ras-G12D responder T cells upon co-culture ([3]; Example 2, FIG. 2, HLA-A*11+ human PBMCs SQZ-loaded with 100 μM SLP, compared to vehicle control, listed as K-Ras-G12D^1-16): increased amount
IFN-γ expressing K-Ras-G12D responder T cells upon co-culture ([3]; Example 7, FIG. 7, HLA-A*11+ human PBMCs SQZ-loaded with one SLP or a combination of two SLPs, each at 100 μM): significant increases
IFN-γ expressing K-Ras G12D responder T cells upon co-culture ([3]; Example 10, FIG. 10, HLA-A*11+ human PBMCs SQZ-loaded with 100 μM SLP (SQZ-G12D), listed as K-Ras-G12D^1-16): significant increases; also recorded: increased amount
IFN-γ expressing responder T cells upon co-culture ([3]; Example 10): did not result in increase

MTEYKLVVVGAVGVGK [G12V^1-16, K-Ras G12V synthetic long peptide, residues 1-16]
IFN-γ secretion by K-Ras-G12V responder T cells upon co-culture [1]: significantly increased
IFN-γ secretion by K-Ras-G12V responder T cells upon co-culture ([1]; listed as K-Ras-G12V^1-16): increased amount
IFN-γ expressing K-Ras-G12V responder T cells upon co-culture [1, 6]: significant increases
IFN-γ expressing K-Ras-G12V responder T cells upon co-culture ([1]; Example 6, FIG. 6, compared to vehicle control, listed as K-Ras-G12V^1-16): increased amount
IFN-γ expressing K-Ras-G12V responder T cells upon co-culture ([2]; Example 8, FIG. 8, HLA-A*11+ human PBMCs SQZ-loaded with one SLP or a combination of two SLPs, each at 100 μM): significant increases

TEYKLVVVGADGVGKSAL [G12D^2-19, K-Ras G12D synthetic long peptide, residues 2-19]
IFN-γ expressing by K-Ras-G12D responder T cells upon co-culture [3, 4]: increased amount; also recorded: significant increases

TEYKLVVVGADGVGKSALTIQ [G12D^2-22, K-Ras G12D synthetic long peptide, residues 2-22]
IFN-γ expressing by K-Ras-G12D responder T cells upon co-culture [3, 4]: increased amount; also recorded: significant increases
IFN-γ secretion by K-Ras-G12D responder T cells upon co-culture ([3]; compared to vehicle control): significantly increased
IFN-γ secretion by K-Ras-G12D responder T cells upon co-culture ([3]; compared to vehicle control, listed as K-Ras-G12D^2-22): increased amount

TEYKLVVVGADGVGKSALTIQLIQNHFV [G12D^2-29, K-Ras G12D synthetic long peptide, residues 2-29]
IFN-γ expressing by K-Ras-G12D responder T cells upon co-culture [3, 4]: increased amount; also recorded: significant increases
IFN-γ expressing K-Ras G12D responder T cells upon co-culture ([3]; Example 10, FIG. 10, HLA-A*11+ human PBMCs SQZ-loaded with 100 μM SLP (SQZ-G12D), listed as K-Ras-G12D^2-29): significant increases; also recorded: increased amount
IFN-γ expressing responder T cells upon co-culture ([3]; Example 10): did not result in increase

VVVGADGVGK [K-Ras G12D^7-16, positive control peptide spike, reference compound]
IFN-γ expressing K-Ras G12D responder T cells upon co-culture ([3]; Example 10, 10 μM peptide added directly to untreated PBMCs and responder cells (peptide spike, positive control)): significant increases

wild type K-Ras^1-16: wild type K-Ras synthetic long peptide, residues 1-16; mutation-specificity comparator (MTEYKLVVVGAGGVGK; UniProt P01116 1-16, looked up, fragment) [reference compound]
IFN-γ expressing K-Ras-G12D responder T cells upon co-culture [3, 5]: did not elicit increases
IFN-γ expressing K-Ras-G12V responder T cells upon co-culture [1, 6]: did not elicit increases
